The values below come from US20250382273A1 (INSTITUT NATIONAL DE LA SANTE ET DE LA RECHERCHE MEDICALE, priority 2022, published 2025).

Molecules are shown by their SMILES.

One experiment has as its system M. tuberculosis H37Rv_DdnL49P_gfp. The format is cell-based, Mycobacterium tuberculosis. Particulars: in combination with pretomanid, unit inferred; read-out: average EC50 H37Rv_DdnL49P_gfp.
With `COc1ccc(-c2ccc3nc(NC(=O)[C@@H]4C5C=CC(C5)[C@@H]4C(=O)O)sc3c2)cc1` (stereo partly drawn) [Example 54, 3-[[6-(4-methoxyphenyl)-1,3-benzothiazol-2-yl]carbamoyl]bicyclo[2.2.1]hept-5-ene-2-carboxylic acid], the EC50 worked out at 690 nM.
Still for that read-out and setting: then `O=C(Nc1nc2ccc(-c3ccc(C(F)(F)F)cc3)cc2s1)[C@@H]1C2C=CC(C2)[C@@H]1C(=O)O` (stereo partly drawn) [Example 60, 3-[[6-[4-(trifluoromethyl)phenyl]-1,3-benzothiazol-2-yl]carbamoyl]bicyclo[2.2.1]hept-5-ene-2-carboxylic acid], with 480 nM.

Still in this experiment, the particulars now being: read-out: EC50 H37Rv_DdnL49P_gfp.
As for `O=C(O)C1C2C=CC(C2)C1C(=O)Nc1nc2ccc([N+](=O)[O-])cc2s1` (stereo not drawn) [Example 38, 3-[(6-nitro-1,3-benzothiazol-2-yl)carbamoyl]bicyclo[2.2.1]hept-5-ene-2-carboxylic acid], the EC50 is 5000 to 10000 nM.
On the same count and under the same terms, as for `N#Cc1ccc2nc(NC(=O)[C@@H]3C4C=CC(C4)[C@@H]3C(=O)O)sc2c1` (stereo partly drawn) [Example 40, 3-[(6-cyano-1,3-benzothiazol-2-yl)carbamoyl]bicyclo[2.2.1]hept-5-ene-2-carboxylic acid], the figure is 5000 to 10000 nM; as for `COC(=O)c1ccc2nc(NC(=O)[C@@H]3C4C=CC(C4)[C@@H]3C(=O)O)sc2c1` (stereo partly drawn) [Example 41, 3-[(6-methoxycarbonyl-1,3-benzothiazol-2-yl)carbamoyl]bicyclo[2.2.1]hept-5-ene-2-carboxylic acid], 1000 to 5000 nM.
As for `O=C(Nc1nc2ccc(F)cc2s1)[C@@H]1C2C=CC(C2)[C@@H]1C(=O)O` (stereo partly drawn) [Example 42, 3-[(6-fluoro-1,3-benzothiazol-2-yl)carbamoyl]bicyclo[2.2.1]hept-5-ene-2-carboxylic acid], the EC50 was 1000 to 5000 nM.
On the same count and under the same terms, as for `O=C(Nc1nc2ccc(C(F)(F)F)cc2s1)[C@@H]1C2C=CC(C2)[C@@H]1C(=O)O` (stereo partly drawn) [Example 43, 3-[[6-(trifluoromethyl)-1,3-benzothiazol-2-yl]carbamoyl]bicyclo[2.2.1]hept-5-ene-2-carboxylic acid], the figure is 1000 to 5000 nM; as for `O=C(Nc1nc2ccc(OC(F)(F)F)cc2s1)[C@@H]1C2C=CC(C2)[C@@H]1C(=O)O` (stereo partly drawn) [Example 44, 3-[[6-(trifluoromethoxy)-1,3-benzothiazol-2-yl]carbamoyl]bicyclo[2.2.1]hept-5-ene-2-carboxylic acid], 1000 to 5000 nM; as for `O=C1[C@@H]2[C@H](C(=O)N1c1nc3ccc(OC(F)(F)F)cc3s1)[C@@H]1C=C[C@H]2C1` [Example 45, (1R,2S,6R,7S)-4-[6-(trifluoromethoxy)-1,3-benzothiazol-2-yl]-4-azatricyclo[5.2.1.02,6]dec-8-ene-3,5-dione], 5000 to 10000 nM.
Same read-out and setting: then `O=C(Nc1nc2ccc(I)cc2s1)[C@@H]1C2C=CC(C2)[C@@H]1C(=O)O` (stereo partly drawn) [Example 49, 3-[(6-iodo-1,3-benzothiazol-2-yl)carbamoyl]bicyclo[2.2.1]hept-5-ene-2-carboxylic acid], with 1000 to 5000 nM; and `O=C(Nc1nc2ccc(-c3ccccc3)cc2s1)[C@@H]1C2C=CC(C2)[C@@H]1C(=O)O` (stereo partly drawn) [Example 51], with 1000 to 5000 nM; and `O=C(Nc1nc2ccc(C3CCCCC3)cc2s1)[C@@H]1C2C=CC(C2)[C@@H]1C(=O)O` (stereo partly drawn) [Example 52, 3-[(6-cyclohexyl-1,3-benzothiazol-2-yl)carbamoyl]bicyclo[2.2.1]hept-5-ene-2-carboxylic acid], with 1000 to 5000 nM.
On the same count and under the same terms, then `Cc1ccc(-c2ccc3nc(NC(=O)[C@@H]4C5C=CC(C5)[C@@H]4C(=O)O)sc3c2)cc1` (stereo partly drawn) [Example 53, 3-[[6-(p-tolyl)-1,3-benzothiazol-2-yl]carbamoyl]bicyclo[2.2.1]hept-5-ene-2-carboxylic acid], with < 1000 nM.
As to `COc1ccc(-c2ccc3nc(NC(=O)[C@@H]4C5C=CC(C5)[C@@H]4C(=O)O)sc3c2)cc1` (stereo partly drawn) [Example 54, 3-[[6-(4-methoxyphenyl)-1,3-benzothiazol-2-yl]carbamoyl]bicyclo[2.2.1]hept-5-ene-2-carboxylic acid], the EC50 was < 1000 nM.
Same read-out and setting: then `O=C(Nc1nc2ccc(-c3ccc(Cl)cc3)cc2s1)[C@@H]1C2C=CC(C2)[C@@H]1C(=O)O` (stereo partly drawn) [Example 55, 3-[[6-(4-chlorophenyl)-1,3-benzothiazol-2-yl]carbamoyl]bicyclo[2.2.1]hept-5-ene-2-carboxylic acid], with < 1000 nM.
On the same count and under the same terms, as for `O=C(Nc1nc2ccc(-c3ccc(Cl)c(Cl)c3)cc2s1)[C@@H]1C2C=CC(C2)[C@@H]1C(=O)O` (stereo partly drawn) [Example 56, 3-[[6-(3,4-dichlorophenyl)-1,3-benzothiazol-2-yl]carbamoyl]bicycle [2.2.1]hept-5-ene-2-carboxylic acid], the figure is 1000 to 5000 nM; as for `O=C(Nc1nc2ccc(-c3ccccc3C(F)(F)F)cc2s1)[C@@H]1C2C=CC(C2)[C@@H]1C(=O)O` (stereo partly drawn) [Example 57, 3-[6-[[2-(trifluoromethyl)phenyl]-1,3-benzothiazol-2-yl]carbamoyl]bicyclo[2.2.1]hept-5-ene-2-carboxylic acid], 10000 to 20000 nM.
As to `O=C1C2C3C=CC(C3)C2C(=O)N1c1nc2ccc(-c3ccccc3C(F)(F)F)cc2s1` [Example 58, (1R,2S,6R,7S)-4-[6-[[2-(trifluoromethyl)phenyl]-1,3-benzothiazol-2-yl]-4-azatricyclo [5.2.1.02,6]dec-8-ene-3,5-dione], the EC50 lay in the range of 10000 to 20000 nM.
With `O=C(Nc1nc2ccc(-c3cccc(C(F)(F)F)c3)cc2s1)[C@@H]1C2C=CC(C2)[C@@H]1C(=O)O` (stereo partly drawn) [Example 59, 3-[[6-[3-(trifluoromethyl)phenyl]-1,3-benzothiazol-2-yl]carbamoyl]bicyclo[2.2.1]hept-5-ene-2-carboxylic acid], the EC50 was in the range of 1000 to 5000 nM.
On the same count and under the same terms, as for `O=C(Nc1nc2ccc(-c3ccc(C(F)(F)F)cc3)cc2s1)[C@@H]1C2C=CC(C2)[C@@H]1C(=O)O` (stereo partly drawn) [Example 60, 3-[[6-[4-(trifluoromethyl)phenyl]-1,3-benzothiazol-2-yl]carbamoyl]bicyclo[2.2.1]hept-5-ene-2-carboxylic acid], the figure is < 1000 nM; as for `O=C1[C@@H]2[C@H](C(=O)N1c1nc3ccc(-c4ccc(C(F)(F)F)cc4)cc3s1)[C@@H]1C=C[C@H]2C1` [Example 61, (1R,2S,6R,7S)-4-[6-[4-(trifluoromethyl)phenyl]-1,3-benzothiazol-2-yl]-4-azatricyclo[5.2.1.02,6]dec-8-ene-3,5-dione], < 1000 nM.
On the same count and under the same terms, as for `O=C(Nc1nc2ccc(-c3ccc(OC(F)(F)F)cc3)cc2s1)[C@@H]1C2C=CC(C2)[C@@H]1C(=O)O` (stereo partly drawn) [Example 62, 3-[[6-[4-(trifluoromethoxy)phenyl]-1,3-benzothiazol-2-yl]carbamoyl]bicyclo[2.2.1]hept-5-ene-2-carboxylic acid], the figure is < 1000 nM.
Turning to `O=C1[C@@H]2[C@H](C(=O)N1c1nc3ccc(-c4ccc(O)cc4)cc3s1)[C@@H]1C=C[C@H]2C1` [Example 63, (1R,2S,6R,7S)-4-[6-(4-hydroxyphenyl)-1,3-benzothiazol-2-yl]-4-azatricyclo[5.2.1.02,6]dec-8-ene-3,5-dione], the EC50 is 5000 to 10000 nM.
As for `O=C(Nc1nc2ccc(-c3ccncc3)cc2s1)[C@@H]1C2C=CC(C2)[C@@H]1C(=O)O` (stereo partly drawn) [Example 64, 3-[[6-(4-pyridyl)-1,3-benzothiazol-2-yl]carbamoyl]bicyclo[2.2.1]hept-5-ene-2-carboxylic acid], the EC50 is 5000 to 10000 nM.
As for `O=C1[C@@H]2C3C=CC(C3)[C@@H]2C(=O)N1c1nc2ccc(-c3ccc(F)nc3)cc2s1` [Example 65, (1R,2S,6R,7S)-4-[6-(6-fluoro-3-pyridyl)-1,3-benzothiazol-2-yl]-4-azatricyclo[5.2.1.02.6]dec-8-ene-3,5-dione], the EC50 was 1000 to 5000 nM.
Take `O=C(O)C1C2C=CC(C2)[C@H]1C(=O)Nc1nc2ccc(-c3ccc(C(F)(F)F)nc3)cc2s1` (stereo partly drawn) [Example 66, 3-[[6-[6-(trifluoromethyl)-3-pyridyl]-1,3-benzothiazol-2-yl]carbamoyl]bicyclo [2.2.1]hept-5-ene-2-carboxylic acid]: the EC50 lay in the range of 1000 to 5000 nM.
The same measure, in the same setting: as for `O=C1[C@@H]2[C@H](C(=O)N1c1nc3ccc(-c4ccc(C(F)(F)F)nc4)cc3s1)[C@@H]1C=C[C@H]2C1` [Example 67, (1R,2S,6R,7S)-4-[6-[6-(trifluoromethyl)-3-pyridyl]-1,3-benzothiazol-2-yl]-4-azatricyclo [5.2.1.02,6]dec-8-ene-3,5-dione], the figure is 1000 to 5000 nM; as for `O=C1[C@@H]2[C@H](C(=O)N1c1nc3ccc(-c4ccsc4)cc3s1)[C@@H]1C=C[C@H]2C1` [Example 68, (1R,2S,6R,7S)-4-[6-(3-thienyl)-1,3-benzothiazol-2-yl]-4-azatricyclo[5.2.1.02,6]dec-8-ene-3,5-dione], 1000 to 5000 nM; as for `O=C(Nc1nc2ccc(-c3ccoc3)cc2s1)[C@@H]1C2C=CC(C2)[C@@H]1C(=O)O` (stereo partly drawn) [Example 69, 3-[[6-(3-furyl)-1,3-benzothiazol-2-yl]carbamoyl]bicyclo[2.2.1]hept-5-ene-2-carboxylic acid], < 1000 nM.
Still for that read-out and setting: then `O=C1[C@@H]2[C@H](C(=O)N1c1nc3ccc(-c4ccoc4)cc3s1)[C@@H]1C=C[C@H]2C1` [Example 70, (1R,2S,6R,7S)-4-[6-(3-furyl)-1,3-benzothiazol-2-yl]-4-azatricyclo[5.2.1.02,6]dec-8-ene-3,5-dione], with 1000 to 5000 nM.
Take `C#CCOc1ccc(-c2ccc3nc(N4C(=O)[C@@H]5[C@H](C4=O)[C@@H]4C=C[C@H]5C4)sc3c2)cc1` [Example 71, (1R,2S,6R,7S)-4-[6-(4-prop-2-ynoxyphenyl)-1,3-benzothiazol-2-yl]-4-azatricyclo[5.2.1.02,6]dec-8-ene-3,5-dione]: the EC50 was < 1000 nM.
For `C#Cc1ccc2nc(N3C(=O)[C@@H]4[C@H](C3=O)[C@@H]3C=C[C@H]4C3)sc2c1` [Example 72, (1R,2S,6R,7S)-4-(6-ethynyl-1,3-benzothiazol-2-yl)-4-azatricyclo[5.2.1.02,6]dec-8-ene-3,5-dione], the 50% effective concentration (EC50) was in the range of 1000 to 5000 nM.
With `C#CCOc1ccc2nc(N3C(=O)[C@@H]4[C@H](C3=O)[C@@H]3C=C[C@H]4C3)sc2c1` [Example 73, (1R,2S,6R,7S)-4-(6-prop-2-ynoxy-1,3-benzothiazol-2-yl)-4-azatricyclo[5.2.1.02,6]dec-8-ene-3,5-dione], the 50% effective concentration (EC50) was < 1000 nM.
On the same count and under the same terms, then `O=C1[C@@H]2C3C=CC(C3)[C@@H]2C(=O)N1c1nc2c(O)cccc2s1` [Example 74], with 1000 to 5000 nM; and `C#CCOc1cccc2sc(NC(=O)[C@@H]3C4C=CC(C4)[C@@H]3C(=O)O)nc12` (stereo partly drawn) [Example 75, 3-[(4-prop-2-ynoxy-1,3-benzothiazol-2-yl)carbamoyl]bicyclo[2.2.1]hept-5-ene-2-carboxylic acid], with 1000 to 5000 nM.
Same read-out and setting: then `O=C(Nc1nc2ccc(C#Cc3ccccc3)cc2s1)[C@@H]1C2C=CC(C2)[C@@H]1C(=O)O` (stereo partly drawn) [Example 77, 3-[[6-(2-phenylethynyl)-1,3-benzothiazol-2-yl]carbamoyl]bicyclo[2.2.1]hept-5-ene-2-carboxylic acid], with < 1000 nM.

What is called EC50 is the concentration giving half of the maximal effect.
